# Where “and” joins values, the source holds several entries; their conditions need not be identical. Equal values may be shown once. Inconclusive results and toxic doses are left out.
# Tested on: CD2F1 mice, L1210 leukemia ip, survival T/C
# Assay: NCI In Vivo Anticancer Drug Screen. Data for tumor model L1210 Leukemia (intraperitoneal) in CD2F1 (CDF1) mice
# Conditions: higher = longer survival
# How it was run: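 Each value reflects a quotient of treated over vehicle control outcomes in mice with a transplanted tumor.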
# [1] = endpoint: mean survival time, dose: 100.0 mg/kg/injection, schedule: Q01DX009 (ip), vehicle: saline with Tween-80
# [2] = endpoint: mean survival time, dose: 100.0 mg/kg/injection, schedule: Q04DX003 (ip), vehicle: saline with Tween-80
# [3] = endpoint: mean survival time, dose: 200.0 mg/kg/injection, schedule: Q01DX009 (ip), vehicle: saline with Tween-80
# [4] = endpoint: mean survival time, dose: 200.0 mg/kg/injection, schedule: Q04DX003 (ip), vehicle: saline with Tween-80
# [5] = endpoint: mean survival time, dose: 400.0 mg/kg/injection, schedule: Q04DX003 (ip), vehicle: saline with Tween-80
# [6] = endpoint: mean survival time, dose: 400.0 mg/kg/injection, schedule: Q01DX009 (ip), vehicle: saline with Tween-80
# [7] = endpoint: mean survival time, dose: 75.0 mg/kg/injection, schedule: Q01DX009 (ip), vehicle: saline with Tween-80
# [8] = endpoint: mean survival time, dose: 150.0 mg/kg/injection, schedule: Q01DX009 (ip), vehicle: saline with Tween-80
smiles,measurement,setting,value
CC(=O)NCc1cccc([N+](=O)[O-])c1,T/C,"endpoint: mean survival time, dose: 25.0 mg/kg/injection, schedule: Q01DX005 (ip), vehicle: suspension in saline",97 % of control
same,T/C,"endpoint: mean survival time, dose: 50.0 mg/kg/injection, schedule: Q01DX005 (ip), vehicle: suspension in saline",106 % of control
same,T/C,"endpoint: mean survival time, dose: 100.0 mg/kg/injection, schedule: Q01DX005 (ip), vehicle: suspension in saline",105 % of control
same,T/C,"endpoint: mean survival time, dose: 200.0 mg/kg/injection, schedule: Q01DX005 (ip), vehicle: suspension in saline",95 % of control
same,T/C,"endpoint: mean survival time, dose: 400.0 mg/kg/injection, schedule: Q01DX005 (ip), vehicle: suspension in saline",95 % of control
COc1ccc(OC)c(/C=C(\C#N)c2ccc([N+](=O)[O-])cc2)c1,T/C,"endpoint: mean survival time, dose: 16.5 mg/kg/injection, schedule: Q01DX009 (ip), vehicle: saline with Tween-80",87 % of control
same,T/C,"endpoint: mean survival time, dose: 25.0 mg/kg/injection, schedule: Q01DX009 (ip), vehicle: saline with Tween-80",87 % of control
same,T/C,[1],90 % of control
same,T/C,[2],91 % of control
same,T/C,[3],86 % of control
same,T/C,[4],101 % of control
CN(C)N=Nc1ccccc1C(=O)NNC(=O)CC#N,T/C,"endpoint: mean survival time, dose: 18.75 mg/kg/injection, schedule: Q01DX009 (ip), vehicle: Klucel (hydroxypropylcellulose) (HPC)",88 % of control and 97 % of control
same,T/C,"endpoint: mean survival time, dose: 37.5 mg/kg/injection, schedule: Q01DX009 (ip), vehicle: Klucel (hydroxypropylcellulose) (HPC)",92 % of control and 100 % of control
same,T/C,"endpoint: mean survival time, dose: 75.0 mg/kg/injection, schedule: Q01DX009 (ip), vehicle: Klucel (hydroxypropylcellulose) (HPC)",93 % of control and 111 % of control
same,T/C,"endpoint: mean survival time, dose: 150.0 mg/kg/injection, schedule: Q01DX009 (ip), vehicle: Klucel (hydroxypropylcellulose) (HPC)",113 % of control and 102 % of control
same,T/C,"endpoint: mean survival time, dose: 300.0 mg/kg/injection, schedule: Q01DX009 (ip), vehicle: Klucel (hydroxypropylcellulose) (HPC)",120 % of control and 111 % of control
CC[C@]1(O)C[C@H]2CN(CCc3c([nH]c4ccccc34)[C@@](C(=O)OC)(c3cc4c(cc3OC)N(C)[C@H]3[C@@](O)(C(=O)OC)[C@H](OC(C)=O)[C@]5(CC)C=CCN6CC[C@]43[C@@H]65)C2)C1,T/C,"endpoint: mean survival time, dose: 0.03 mg/kg/injection, schedule: Q01DX009 (ip), vehicle: water",92 % of control
same,T/C,"endpoint: mean survival time, dose: 0.06 mg/kg/injection, schedule: Q01DX009 (ip), vehicle: water",97 % of control
same,T/C,"endpoint: mean survival time, dose: 0.13 mg/kg/injection, schedule: Q01DX009 (ip), vehicle: water",95 % of control
same,T/C,"endpoint: mean survival time, dose: 0.25 mg/kg/injection, schedule: Q01DX007 (ip), vehicle: water",120 % of control
same,T/C,"endpoint: mean survival time, dose: 0.5 mg/kg/injection, schedule: Q04DX003 (ip), vehicle: water",120 % of control
same,T/C,"endpoint: mean survival time, dose: 1.0 mg/kg/injection, schedule: Q01DX007 (ip), vehicle: water",91 % of control
same,T/C,"endpoint: mean survival time, dose: 1.0 mg/kg/injection, schedule: Q01DX009 (ip), vehicle: saline",90 % of control and 91 % of control
same,T/C,"endpoint: mean survival time, dose: 1.0 mg/kg/injection, schedule: Q01DX009 (ip), vehicle: water",86 % of control
same,T/C,"endpoint: mean survival time, dose: 1.0 mg/kg/injection, schedule: Q04DX003 (ip), vehicle: water",120 % of control
same,T/C,"endpoint: median survival time, dose: 0.83 mg/kg/injection, schedule: Q01DX009 (ip), vehicle: saline",110 % of control
same,T/C,"endpoint: median survival time, dose: 1000.0 micrograms/kg/injection, schedule: Q01DX009 (ip), vehicle: saline",98 % of control
O=NN(CCCl)C(=S)NC1CCCCC1,T/C,"endpoint: mean survival time, dose: 6.25 mg/kg/injection, schedule: Q01DX001 (ip), vehicle: other",104 % of control
same,T/C,"endpoint: mean survival time, dose: 12.5 mg/kg/injection, schedule: Q01DX001 (ip), vehicle: other",211 % of control
same,T/C,"endpoint: mean survival time, dose: 25.0 mg/kg/injection, schedule: Q01DX001 (ip), vehicle: other",246 % of control and 403 % of control
same,T/C,"endpoint: mean survival time, dose: 50.0 mg/kg/injection, schedule: Q01DX001 (ip), vehicle: other",295 % of control and 523 % of control
O=C(O)CCCCCCCCC(=O)c1ccccc1,T/C,[2],97 % of control
same,T/C,[4],95 % of control
same,T/C,[5],88 % of control
O=C(O)COc1ccc([N+](=O)[O-])cc1,T/C,[1],101 % of control
same,T/C,[3],94 % of control
same,T/C,[6],101 % of control
CC1CCC2CON(C#N)C2C1 (stereo unspecified),T/C,"endpoint: mean survival time, dose: 100.0 mg/kg/injection, schedule: Q04DX003 (ip), vehicle: Klucel (hydroxypropylcellulose) (HPC)",109 % of control
same,T/C,"endpoint: mean survival time, dose: 200.0 mg/kg/injection, schedule: Q04DX003 (ip), vehicle: Klucel (hydroxypropylcellulose) (HPC)",101 % of control
same,T/C,"endpoint: mean survival time, dose: 400.0 mg/kg/injection, schedule: Q04DX003 (ip), vehicle: Klucel (hydroxypropylcellulose) (HPC)",101 % of control
CCCCCCCCCC(=O)NCC[N+](C)(CC)CC,T/C,"endpoint: mean survival time, dose: 5.0 mg/kg/injection, schedule: Q01DX001 (ip), vehicle: saline",102 % of control
same,T/C,"endpoint: mean survival time, dose: 10.0 mg/kg/injection, schedule: Q01DX001 (ip), vehicle: saline",107 % of control
same,T/C,"endpoint: mean survival time, dose: 20.0 mg/kg/injection, schedule: Q01DX001 (ip), vehicle: saline",100 % of control
same,T/C,"endpoint: mean survival time, dose: 40.0 mg/kg/injection, schedule: Q01DX001 (ip), vehicle: saline",105 % of control
CC(=O)Oc1cc(-c2ccccc2)c(OC(C)=O)c(N=[N+]=[N-])c1C,T/C,"endpoint: mean survival time, dose: 100.0 mg/kg/injection, schedule: Q01DX001 (ip), vehicle: saline with Tween-80",101 % of control
same,T/C,"endpoint: mean survival time, dose: 200.0 mg/kg/injection, schedule: Q01DX001 (ip), vehicle: saline with Tween-80",108 % of control
CC(=O)OC1OC(C)C(OC(C)=O)C(OC(C)=O)C1NC(=O)N(CCCl)N=O (stereo unspecified),T/C,"endpoint: mean survival time, dose: 17.0 mg/kg/injection, schedule: Q01DX001 (ip), vehicle: saline with Tween-80",508 % of control
same,T/C,"endpoint: mean survival time, dose: 26.0 mg/kg/injection, schedule: Q01DX001 (ip), vehicle: saline with Tween-80",535 % of control
same,T/C,"endpoint: mean survival time, dose: 40.0 mg/kg/injection, schedule: Q01DX001 (ip), vehicle: saline with Tween-80",389 % of control
Cc1cccc[n+]1CC[n+]1ccccc1C,T/C,"endpoint: mean survival time, dose: 100.0 mg/kg/injection, schedule: Q01DX001 (ip), vehicle: saline",100 % of control
same,T/C,"endpoint: mean survival time, dose: 200.0 mg/kg/injection, schedule: Q01DX001 (ip), vehicle: saline",101 % of control
[Br][Pt+2][Br].[NH-]c1cccc(I)c1.[NH-]c1cccc(I)c1,T/C,"endpoint: mean survival time, dose: 3.12 mg/kg/injection, schedule: Q04DX003 (ip), vehicle: distilled water + Tween-80",98 % of control
same,T/C,"endpoint: mean survival time, dose: 6.25 mg/kg/injection, schedule: Q04DX003 (ip), vehicle: distilled water + Tween-80",101 % of control
same,T/C,"endpoint: mean survival time, dose: 12.5 mg/kg/injection, schedule: Q04DX003 (ip), vehicle: distilled water + Tween-80",101 % of control
same,T/C,"endpoint: mean survival time, dose: 25.0 mg/kg/injection, schedule: Q04DX003 (ip), vehicle: distilled water + Tween-80",101 % of control
same,T/C,"endpoint: mean survival time, dose: 50.0 mg/kg/injection, schedule: Q04DX003 (ip), vehicle: distilled water + Tween-80",101 % of control
same,T/C,"endpoint: mean survival time, dose: 100.0 mg/kg/injection, schedule: Q04DX003 (ip), vehicle: distilled water + Tween-80",98 % of control
same,T/C,"endpoint: mean survival time, dose: 200.0 mg/kg/injection, schedule: Q04DX003 (ip), vehicle: distilled water + Tween-80",114 % of control
CC(=O)N[C@H](CO)[C@H](O)c1ccc([N+](=O)[O-])cc1,T/C,[7],96 % of control
same,T/C,[8],96 % of control
same,T/C,"endpoint: mean survival time, dose: 300.0 mg/kg/injection, schedule: Q01DX009 (ip), vehicle: saline with Tween-80",95 % of control
Cc1ccc(NC(=O)c2ccc(C(=O)Nc3ccc(C)cc3)cc2)cc1,T/C,[1],98 % of control
same,T/C,[2],87 % of control
same,T/C,[3],88 % of control
same,T/C,[4],97 % of control
same,T/C,[6],93 % of control
same,T/C,[5],86 % of control
C[n+]1cccc2cccc(C(=O)O)c21,T/C,"endpoint: mean survival time, dose: 37.5 mg/kg/injection, schedule: Q01DX009 (ip), vehicle: saline with Tween-80",112 % of control
same,T/C,[7],109 % of control
same,T/C,[8],107 % of control
Nc1n[nH]c(=S)n1-c1ccccc1,T/C,"endpoint: mean survival time, dose: 50.0 mg/kg/injection, schedule: Q01DX009 (ip), vehicle: acetone",98 % of control
same,T/C,"endpoint: mean survival time, dose: 100.0 mg/kg/injection, schedule: Q01DX009 (ip), vehicle: acetone",93 % of control
same,T/C,"endpoint: mean survival time, dose: 200.0 mg/kg/injection, schedule: Q01DX009 (ip), vehicle: acetone",98 % of control
COC1=C(C)C(=O)c2c(c(COC(N)=O)c3n2CCC3OC(N)=O)C1=O (stereo unspecified),T/C,"endpoint: mean survival time, dose: 1.25 mg/kg/injection, schedule: Q01DX001 (ip), vehicle: distilled water + Tween-80",108 % of control
same,T/C,"endpoint: mean survival time, dose: 1.5 mg/kg/injection, schedule: Q01DX001 (ip), vehicle: distilled water + Tween-80",114 % of control
same,T/C,"endpoint: mean survival time, dose: 2.5 mg/kg/injection, schedule: Q01DX001 (ip), vehicle: distilled water + Tween-80",120 % of control
same,T/C,"endpoint: mean survival time, dose: 3.0 mg/kg/injection, schedule: Q01DX001 (ip), vehicle: distilled water + Tween-80",118 % of control
same,T/C,"endpoint: mean survival time, dose: 5.0 mg/kg/injection, schedule: Q01DX001 (ip), vehicle: distilled water + Tween-80",117 % of control
same,T/C,"endpoint: mean survival time, dose: 6.0 mg/kg/injection, schedule: Q01DX001 (ip), vehicle: distilled water + Tween-80",116 % of control
same,T/C,"endpoint: mean survival time, dose: 10.0 mg/kg/injection, schedule: Q01DX001 (ip), vehicle: distilled water + Tween-80",115 % of control
same,T/C,"endpoint: mean survival time, dose: 12.0 mg/kg/injection, schedule: Q01DX001 (ip), vehicle: distilled water + Tween-80",122 % of control

# — PubChem BioAssay AID256 (DTP/NCI, 2004)
